Assay results published in PMC12391934, “Palladium-Catalyzed C–H Arylation of Quinoidal Scaffolds Through Homogeneous and Heterogeneous Pathways: Advancing Toward Trypanocidal Prototypes” (ACS Omega, 2025).

Assays:
Assay type in all cases: cell-based
[1] = test system: trypomastigote forms of Trypanosoma cruzi (Y strain); assay: Trypanocidal assay, bloodstream trypomastigotes, 5% of blood at 4 °C; details: 24 h, concentration giving 50% lysis of the parasites, mean ± SD of at least three experiments
Protocol: 5% of blood at 4 °C: For all the experiments, stock solutions of the compounds were prepared in dimethyl sulfoxide, with the final concentration of the solvent never exceeding 0.5%, concentration known to exert no toxicity to the parasite or host cells. Bloodstream trypomastigotes of Y strain were obtained from infected Swiss Webster mice at the peak of parasitemia by differential centrifugation process. The parasites (5 × 10^6 parasites per mL) plus 5% of blood were incubated at 4 °C for 24 h in 5% CO2 atmosphere in absence or presence of the compounds. […] At least three independent experiments were performed, and the mean and standard deviation were calculated. The standard drug Bz was used as control.

[2] = in vitro
[3] = test system: trypomastigote forms of Trypanosoma cruzi (Y strain); assay: Trypanocidal assay, bloodstream trypomastigotes, 0% of blood at 37 °C; details: 24 h, concentration giving 50% lysis of the parasites, mean ± SD of at least three experiments
Protocol: 0% of blood at 37 °C: The experiments were performed with the Y strain of T. cruzi.^11 Stock solutions of the compounds were prepared in dimethylsulfoxide (DMSO), with the final concentration of the latter in the experiments never exceeding 0.1%. […] Bloodstream trypomastigotes were obtained from infected Albino Swiss mice at the peak of parasitemia by differential centrifugation. The parasites were resuspended to a concentration of 10 × 10^6 cells/mL in DMES medium. This suspension (100 µL) was added to the same volume of each of the compounds, which had been previously prepared at twice the desired final concentrations. The incubation was performed in 96-well microplates (Nunc Inc., Rochester, USA) at 37 °C for 24 h. Benznidazole (Lafepe, Brazil), the standard drug for treatment of chagasic patients, was used as control.

| Structure (SMILES) | IC50 [1] | CC50 at 24 h [2] | IC50 [3] |
| --- | --- | --- | --- |
| Cc1ccc(C2=CC(=O)C=C(c3ccc(C)cc3)C2=O)cc1 [3v] | 233 ± 12.4 µM | – | – |
| Cc1cc(C)cc(C2=CC(=O)c3cc4ccccc4cc3C2=O)c1 [3p] | > 250 µM | – | – |
| COc1cccc(C2=CC(=O)c3ccccc3C2=O)c1 [3f] | 30.7 ± 2.5 µM | 8.3 ± 1.3 µM | 3.85 ± 0.01 µM |
| COc1ccc(C2=CC(=O)c3ccccc3C2=O)cc1 [3e] | 47.6 ± 0.6 µM | 34 ± 0.5 µM | – |
| Cc1cc(C)cc(C2=CC(=O)c3ccccc3C2=O)c1 [3c] | 219 ± 13.4 µM | – | – |
| Cc1ccc(C2=CC(=O)c3c(O)cccc3C2=O)cc1 [3l] | 14.4 ± 2.1 µM | 4.8 ± 0.9 µM | 0.31 ± 0.04 µM |
| COC(=O)c1ccc(C2=CC(=O)c3ccccc3C2=O)cc1 [3h] | 45.9 ± 4.3 µM | 30.6 ± 1 µM | – |
| O=C1C=C(c2ccccc2)C(=O)c2ccccc21 [3d] | 25.2 ± 2.8 µM | 9.4 ± 2.2 µM | 2.11 ± 0.1 µM |
| Cc1cc([N+](=O)[O-])ccc1C1=CC(=O)c2ccccc2C1=O [3i] | 39.5 ± 4.1 µM | 6.8 ± 0.6 µM | – |
| COc1ccc(C2=CC(=O)c3ccccc3C2=O)c([N+](=O)[O-])c1 [3j] | 86.1 ± 7.2 µM | – | – |
| O=C1C=C(c2ccccc2)C(=O)c2c(O)cccc21 [3n] | 13.7 ± 1.1 µM | 6.4 ± 0.5 µM | 0.69 ± 0.03 µM |
| Cc1cccc(C2=CC(=O)c3ccccc3C2=O)c1 [3b] | 38.4 ± 1.3 µM | 14.3 ± 0.5 µM | – |
| COc1cc2c(cc1OC)C(=O)C(c1ccc(C)cc1)=CC2=O [3k] | 83.3 ± 4.8 µM | – | – |
| O=C1C(c2ccccc2)=CC(=O)c2c(O)cccc21 [3m] | 12.7 ± 0.1 µM | < 3.9 µM | 0.34 ± 0.03 µM |
| O=C1C=C(c2ccccc2)C(=O)c2cc3ccccc3cc21 [3q] | > 250 µM | – | – |
| Cc1ccc(C2=CC(=O)c3ccccc3C2=O)cc1 [3a] | 36.3 ± 2.9 µM | 24.6 ± 3.2 µM | – |
| O=C1C=C(c2ccc(C(F)(F)F)cc2)C(=O)c2ccccc21 [3g] | 30.6 ± 2.1 µM | 6.8 ± 0.2 µM | – |
